Assay results reported in ChEMBL document CHEMBL3885861, “Open TG-GATES”.

Species on record: Rattus norvegicus
Assay: Open TG-GATES - Regimen: Single
Format: toxicity, organism-based, Sprague-Dawley
Parameters: regimen Single, gender Male, age 6 weeks
Settings: in vivo, po, route gavage; for APTT / Bas / Eos / Fbg / Hb / Ht / Lym / MCH / MCHC / MCV / Mono / Neu / PT / Plat / Ret / WBC: tissue Blood; for KIDNEY_L / KIDNEY_R / KIDNEY_TOTAL: tissue Kidney; for LIVER: tissue Liver; for ALP / ALT / AST / BUN / CRE / Ca / DBIL / GLC / IP / K / LDH / Na / PL / RALB / TBIL / TC / TG / TP / gamma-GTP: tissue Plasma

## CN(C)CCCN1c2ccccc2CCc2ccc(Cl)cc21 [CLOMIPRAMINE]
10 mg/kg, 3 h, dose level Low
  APTT: 17.9 s
  Bas: 0.4%
  Eos: 1%
  Fbg: 240 mg/dL
  Hb: 14 g/dL
  Ht: 43.3%
  Lym: 81%
  MCH: 20.7 pg
  MCHC: 32.4%
  MCV: 63.9 fL
  Mono: 3.4%
  Neu: 13.8%
  PT: 13.5 s
  Plat: 129 x10_4/uL
  Ret: 7.8%
  WBC: 74.4 x10_2/uL
  KIDNEY_L: 1 g
  KIDNEY_R: 1 g
  KIDNEY_TOTAL: 1.9 g
  LIVER: 10 g
  ALP: 1810.4 IU/L
  ALT: 41.2 IU/L
  AST: 75.8 IU/L
  BUN: 9.8 mg/dL
  CRE: 0.2 mg/dL
  Ca: 10.7 mg/dL
  DBIL: 0.01 mg/dL
  GLC: 189 mg/dL
  IP: 9 mg/dL
  K: 4.3 meq/L
  LDH: 123 IU/L
  Na: 140.6 meq/L
  PL: 148.6 mg/dL
  RALB: 2.5 g/dL
  TBIL: 0.074 mg/dL
  TC: 76.2 mg/dL
  TG: 78 mg/dL
  TP: 5.2 g/dL
  gamma-GTP: 1.2 IU/L
10 mg/kg, 6 h, dose level Low
  TERMINAL_BW: 215.1 g
  APTT: 17 s
  Bas: 0%
  Eos: 0.4%
  Fbg: 254.8 mg/dL
  Hb: 14 g/dL
  Ht: 43.7%
  Lym: 79.6%
  MCH: 21 pg
  MCHC: 32.1%
  MCV: 65.5 fL
  Mono: 3%
  Neu: 15.6%
  PT: 13.6 s
  Plat: 119.7 x10_4/uL
  Ret: 7.9%
  WBC: 81.1 x10_2/uL
  KIDNEY_L: 1 g
  KIDNEY_R: 1 g
  KIDNEY_TOTAL: 2 g
  LIVER: 9.3 g
  ALP: 1661 IU/L
  ALT: 39.4 IU/L
  AST: 78.4 IU/L
  BUN: 9.4 mg/dL
  CRE: 0.2 mg/dL
  Ca: 10.8 mg/dL
  DBIL: 0.01 mg/dL
  GLC: 189.8 mg/dL
  IP: 9.4 mg/dL
  K: 4.2 meq/L
  LDH: 93 IU/L
  Na: 140.8 meq/L
  PL: 149 mg/dL
  RALB: 2.5 g/dL
  TBIL: 0.072 mg/dL
  TC: 83.4 mg/dL
  TG: 52.2 mg/dL
  TP: 5.3 g/dL
  gamma-GTP: 1.4 IU/L
10 mg/kg, 9 h, dose level Low
  TERMINAL_BW: 213 g
  APTT: 15.9 s
  Bas: 0%
  Eos: 0.6%
  Fbg: 267.6 mg/dL
  Hb: 13.5 g/dL
  Ht: 41.8%
  Lym: 78.8%
  MCH: 20.9 pg
  MCHC: 32.2%
  MCV: 64.8 fL
  Mono: 2.2%
  Neu: 17.4%
  PT: 14.1 s
  Plat: 130.4 x10_4/uL
  Ret: 8.4%
  WBC: 80 x10_2/uL
  KIDNEY_L: 1 g
  KIDNEY_R: 0.9 g
  KIDNEY_TOTAL: 1.9 g
  LIVER: 9 g
  ALP: 1512 IU/L
  ALT: 35.8 IU/L
  AST: 67.8 IU/L
  BUN: 10.4 mg/dL
  CRE: 0.2 mg/dL
  Ca: 10.7 mg/dL
  DBIL: 0.01 mg/dL
  GLC: 187.8 mg/dL
  IP: 10.2 mg/dL
  K: 4 meq/L
  LDH: 84.2 IU/L
  Na: 140.2 meq/L
  PL: 138.2 mg/dL
  RALB: 2.5 g/dL
  TBIL: 0.064 mg/dL
  TC: 75.2 mg/dL
  TG: 74 mg/dL
  TP: 5.3 g/dL
  gamma-GTP: 1.4 IU/L
10 mg/kg, 24 h, dose level Low
  TERMINAL_BW: 228.6 g
  APTT: 17.7 s
  Bas: 0%
  Eos: 1%
  Fbg: 249 mg/dL
  Hb: 13.6 g/dL
  Ht: 42.5%
  Lym: 77%
  MCH: 20.8 pg
  MCHC: 32.1%
  MCV: 65 fL
  Mono: 3%
  Neu: 17.6%
  PT: 13.7 s
  Plat: 124 x10_4/uL
  Ret: 7.7%
  WBC: 85.9 x10_2/uL
  KIDNEY_L: 1.1 g
  KIDNEY_R: 1 g
  KIDNEY_TOTAL: 2.1 g
  ALP: 1661.4 IU/L
  ALT: 42.6 IU/L
  AST: 74.4 IU/L
  BUN: 13 mg/dL
  CRE: 0.2 mg/dL
  Ca: 10.8 mg/dL
  DBIL: 0.012 mg/dL
  GLC: 179.8 mg/dL
  IP: 8.1 mg/dL
  K: 4 meq/L
  LDH: 88 IU/L
  Na: 141.8 meq/L
  PL: 144.4 mg/dL
  RALB: 2.6 g/dL
  TBIL: 0.062 mg/dL
  TC: 73.8 mg/dL
  TG: 91.6 mg/dL
  TP: 5.4 g/dL
  gamma-GTP: 1 IU/L
30 mg/kg, 3 h, dose level Middle
  TERMINAL_BW: 217.9 g
